We go through five compounds from ChEMBL document CHEMBL1201862, “PubChem BioAssay data set” (2004).

Assay in all cases: DTP human tumour cell line panel, 48 h
In test [1] the test system is A549.
Test [2] concerns HCT-15.
Test [3] concerns HT-29.
The test system of test [4] is K562.
In test [5] the test system is KM12.
The subject of test [6] is MOLT-4.
Test [7] has as its system NCI-H23.
In test [8] the test system is NCI-H460.
Test [9] deals with OVCAR-3.
In test [10] the test system is OVCAR-4.
Test [11] concerns RXF 393.
Test [12] has as its system SF-268.
For test [13], the system named is SF-295.
Test [14] relates to SF-539.
Test [15] concerns SN12C.
The subject of test [16] is SNB-19.
In test [17] the test system is SNB-75.
The subject of test [18] is UACC-257.
In test [19] the test system is SK-MEL-2.

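Exposure lasted 48 hours, with cells grown in 96-well plates and compounds tested at five concentrations. GI50 marks 50% less growth.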 Calls of active or inactive are those of the source. Rule as the data show it: active = GI50 up to about 1.1 µM and inactive = higher. A value given as a limit tells only on which side of the number the result lay.

Take `O=[N+]([O-])c1ccc(Cl)cc1N/N=C/c1ccnc2ccccc12`: the GI50 is > 100 µM (inactive) in [1]; above 100 µM in test [2]; > 100 µM (inactive) in [3]; > 100 µM (inactive) in test [4]; > 100 µM (inactive) in test [5]; > 100 µM (inactive) in test [6]. Further, the GI50 in [7] was > 100 µM (inactive); in test [8], > 100 µM (inactive); in test [9] it was > 100 µM (inactive); in test [10] it was > 100 µM (inactive); in test [11], 36.9 µM (inactive); in test [12], > 100 µM (inactive). Moreover, the GI50 is > 100 µM (inactive) in test [13]; 21.9 µM (inactive) in test [14]; > 100 µM (inactive) in [15]; > 100 µM (inactive) in test [16]; 31.1 µM (inactive) in test [17]; > 100 µM (inactive) in [18].

Consider `O=C(c1ccccc1)c1nc2ccc(Cl)cc2c2c1CCCO2`, for which the 50% growth inhibitory concentration (GI50) in test [2] was above 100 µM; in [3], > 100 µM (inactive); in [4], > 100 µM (inactive); in test [5] it was > 100 µM (inactive); in test [6] it was > 100 µM (inactive); in test [7] it was 72.8 µM (inactive). Further, the GI50 in [8] was > 100 µM (inactive); in test [9], > 100 µM (inactive); in [10], > 100 µM (inactive); in [11], 56.2 µM (inactive); in test [12], > 100 µM (inactive); in [13] it was 50 µM (inactive). Further, the GI50 in [19], in [15] and in test [16] was > 100 µM (inactive) each time.

As to `CCOCNC(=O)N(COCC)COCC`, the GI50 in test [1] was > 100 µM (inactive); in [2], above 100 µM; in test [3], > 100 µM (inactive); in test [4] it was > 100 µM (inactive); in test [5] it was > 100 µM (inactive); in test [6] it was > 100 µM (inactive). The GI50 in test [9] was 33 µM (inactive); in test [12], > 100 µM (inactive); in test [13] it was > 100 µM (inactive); in test [14] it was > 100 µM (inactive); in test [19], > 100 µM (inactive); in test [15], > 100 µM (inactive). Moreover, the GI50 in test [16], in test [17] and in test [18] was > 100 µM (inactive) throughout.

As for `NC(=O)CCC(NCc1c2ccccc2[n+]([O-])c2ccccc12)C(=O)O` (stereo not drawn), the GI50 in test [1] is > 100 µM (inactive); in test [2], 34.5 µM; in [3], > 100 µM (inactive); in test [4], 36.3 µM (inactive); in test [5], 65.9 µM (inactive); in [6], 30 µM (inactive). The GI50 in [7] was 63 µM (inactive); in [8] it was > 100 µM (inactive); in [9] it was > 100 µM (inactive); in [10], 40.1 µM (inactive); in test [12], 59.2 µM (inactive); in test [13], > 100 µM (inactive). The GI50 in test [19] is 95.9 µM (inactive); in test [15], > 100 µM (inactive); in test [16], > 100 µM (inactive); in test [17], 49.7 µM (inactive); in [18], > 100 µM (inactive).

As for `CCOC(=O)C(Cc1ccc(N=NN(C)C)cc1)NC(=O)CC1c2ccccc2-c2ccccc21` (stereo not drawn), the GI50 was 81.7 µM (inactive) in [1]; above 100 µM in test [2]; > 100 µM (inactive) in test [3]; 75.2 µM (inactive) in test [4]; > 100 µM (inactive) in test [5]; 38.3 µM (inactive) in test [6]. Moreover, the GI50 in test [7] is > 100 µM (inactive); in test [8] it was 71.6 µM (inactive); in [9] it was 36.1 µM (inactive); in test [10], > 100 µM (inactive); in test [12], > 100 µM (inactive); in test [13], > 100 µM (inactive). Moreover, the GI50 in [14], in test [19], in test [15], in [16], in test [17] and in [18] was > 100 µM (inactive) in each case.

The term GI50 denotes the concentration that inhibits growth by half.
